{"source": "patent US20260262643A1", "about": "“HERBICIDAL BENZOXAZINES” (FMC CORPORATION, priority 2022, published 2026)", "key": {"blackgrass [1]": {"tested_on": "blackgrass", "experiment": "Test C preemergence", "type": "in vivo, Alopecurus myosuroides", "procedure,_shortened": "(§1)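 Visual injury score, 0–100 (100 = complete control), taken 10 days after treatment relative to untreated controls. Pre: directed spray onto soil over sown seeds. Post: foliar spray at one- to two-leaf stage, 2–10 cm. Solvent/surfactant formulation; loam–sand soil; greenhouse.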"}, "soybean [2]": {"tested_on": "soybean", "experiment": "Test C postemergence", "type": "in vivo, Glycine max", "conditions": "Postemergence, 125 g ai/ha; 0 to 100 scale (0 no effect, 100 complete control), 10 days", "procedure,_shortened": "as §1"}, "ryegrass, Italian [3]": {"tested_on": "ryegrass, Italian", "experiment": "Test C preemergence", "type": "in vivo, Lolium multiflorum", "procedure,_shortened": "as §1"}, "ryegrass, Italian [4]": {"tested_on": "ryegrass, Italian", "experiment": "Test C postemergence", "type": "in vivo, Lolium multiflorum", "conditions": "Postemergence, 125 g ai/ha; 0 to 100 scale (0 no effect, 100 complete control), 10 days", "procedure,_shortened": "as §1"}, "ragweed [5]": {"tested_on": "ragweed", "experiment": "Test C postemergence", "type": "in vivo, Ambrosia artemisiifolia", "conditions": "Postemergence, 125 g ai/ha; 0 to 100 scale (0 no effect, 100 complete control), 10 days", "procedure,_shortened": "as §1"}, "sedge, umbrella": {"tested_on": "sedge, umbrella", "experiment": "Test D flooded paddy test", "type": "in vivo, Cyperus difformis", "conditions": "250 g ai/ha, applied to paddy water, visual rating after 13 to 14 days, scale 0 to 100 (0 no effect, 100 complete control)", "procedure,_shortened": "(§2)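 Plants at the 2-leaf stage were grown in pots flooded to 3 cm, and compound was applied directly into the paddy water, with depth kept throughout. After 13–14 days in a greenhouse, injury was rated visually against untreated controls on a 0–100 scale (100 = complete control); a dash means not tested.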"}, "ducksalad": {"tested_on": "ducksalad", "experiment": "Test D flooded paddy test", "type": "in vivo, Heteranthera limosa", "conditions": "250 g ai/ha, applied to paddy water, visual rating after 13 to 14 days, scale 0 to 100 (0 no effect, 100 complete control)", "procedure,_shortened": "as §2"}, "corn [6]": {"tested_on": "corn", "experiment": "Test C postemergence", "type": "in vivo, Zea mays", "conditions": "10 days, 0 to 100 scale (0 no effect, 100 complete control)", "procedure,_shortened": "as §1"}, "barnyardgrass [7]": {"tested_on": "barnyardgrass", "experiment": "Test C postemergence", "type": "in vivo, Echinochloa crusgalli", "conditions": "10 days, 0 to 100 scale (0 no effect, 100 complete control)", "procedure,_shortened": "as §1"}, "blackgrass [8]": {"tested_on": "blackgrass", "experiment": "Test C postemergence", "type": "in vivo, Alopecurus myosuroides", "conditions": "10 days, 0 to 100 scale (0 no effect, 100 complete control)", "procedure,_shortened": "as §1"}, "green foxtail [9]": {"tested_on": "green foxtail", "experiment": "Test C postemergence", "type": "in vivo, Setaria viridis", "conditions": "10 days, 0 to 100 scale (0 no effect, 100 complete control)", "procedure,_shortened": "as §1"}, "corn [10]": {"tested_on": "corn", "experiment": "Test C preemergence", "type": "in vivo, Zea mays", "procedure,_shortened": "as §1"}, "wheat [11]": {"tested_on": "wheat", "experiment": "Test C postemergence", "type": "in vivo, Triticum aestivum", "conditions": "Postemergence, 125 g ai/ha; 0 to 100 scale (0 no effect, 100 complete control), 10 days", "procedure,_shortened": "as §1"}, "kochia [12]": {"tested_on": "kochia", "experiment": "Test C postemergence", "type": "in vivo, Bassia scoparia", "conditions": "10 days, 0 to 100 scale (0 no effect, 100 complete control)", "procedure,_shortened": "as §1"}, "oat, wild [13]": {"tested_on": "oat, wild", "experiment": "Test C postemergence", "type": "in vivo, Avena fatua", "conditions": "10 days, 0 to 100 scale (0 no effect, 100 complete control)", "procedure,_shortened": "as §1"}, "soybean [14]": {"tested_on": "soybean", "experiment": "Test C preemergence", "type": "in vivo, Glycine max", "procedure,_shortened": "as §1"}, "ragweed [15]": {"tested_on": "ragweed", "experiment": "Test C preemergence", "type": "in vivo, Ambrosia artemisiifolia", "procedure,_shortened": "as §1"}, "wheat [16]": {"tested_on": "wheat", "experiment": "Test C preemergence", "type": "in vivo, Triticum aestivum", "procedure,_shortened": "as §1"}, "oat, wild [17]": {"tested_on": "oat, wild", "experiment": "Test C preemergence", "type": "in vivo, Avena fatua", "procedure,_shortened": "as §1"}, "green foxtail [18]": {"tested_on": "green foxtail", "experiment": "Test C preemergence", "type": "in vivo, Setaria viridis", "procedure,_shortened": "as §1"}, "barnyardgrass [19]": {"tested_on": "barnyardgrass", "experiment": "Test C preemergence", "type": "in vivo, Echinochloa crusgalli", "procedure,_shortened": "as §1"}, "kochia [20]": {"tested_on": "kochia", "experiment": "Test C preemergence", "type": "in vivo, Bassia scoparia", "procedure,_shortened": "as §1"}, "horseweed": {"tested_on": "horseweed", "experiment": "Test C postemergence", "type": "in vivo, Erigeron canadensis", "conditions": "10 days, 0 to 100 scale (0 no effect, 100 complete control)", "procedure,_shortened": "as §1"}, "rice": {"tested_on": "rice", "experiment": "Test D flooded paddy test", "type": "in vivo, Oryza sativa", "conditions": "250 g ai/ha, applied to paddy water, visual rating after 13 to 14 days, scale 0 to 100 (0 no effect, 100 complete control)", "procedure,_shortened": "as §2"}, "pigweed, palmer [21]": {"tested_on": "pigweed, palmer", "experiment": "Test C preemergence", "type": "in vivo, Amaranthus palmeri", "procedure,_shortened": "as §1"}, "pigweed, palmer [22]": {"tested_on": "pigweed, palmer", "experiment": "Test C postemergence", "type": "in vivo, Amaranthus palmeri", "conditions": "10 days, 0 to 100 scale (0 no effect, 100 complete control)", "procedure,_shortened": "as §1"}, "barnyardgrass [23]": {"tested_on": "barnyardgrass", "experiment": "Test D flooded paddy test", "type": "in vivo, Echinochloa crus-galli", "conditions": "250 g ai/ha, applied to paddy water, visual rating after 13 to 14 days, scale 0 to 100 (0 no effect, 100 complete control)", "procedure,_shortened": "as §2"}, "[24]": {"conditions": "500 g ai/ha, preemergence, 0 to 100 scale (0 no effect, 100 complete control)"}, "[25]": {"conditions": "Preemergence, 125 g ai/ha, 0 to 100 scale, 0 no effect, 100 complete control"}}, "data": [{"compound": "CCOC[C@H]1CN(C(=O)c2cc(-n3cnc(C(C)(C)C)n3)cc3c2OCO3)c2cccc(Cl)c2O1", "note": "[Compound 401]", "values": [{"measurement": "Blackgrass plant response rating", "setting": "blackgrass [1]; [24]", "result": 30}, {"measurement": "Plant response rating, Blackgrass", "setting": "blackgrass [1]; [25]", "result": 30}, {"measurement": "Plant response rating, Soybean", "setting": "soybean [2]", "result": 0}, {"measurement": "Ryegrass, Italian plant response rating", "setting": "ryegrass, Italian [3]; [24]", "result": 90}, {"measurement": "Plant response rating, Ryegrass, Italian", "setting": "ryegrass, Italian [3]; [25]", "result": 70}, {"measurement": "Plant response rating, Ryegrass, Italian", "setting": "ryegrass, Italian [4]", "result": 0}, {"measurement": "Plant response rating, Ragweed", "setting": "ragweed [5]", "result": 60}, {"measurement": "Plant response rating, Sedge, Umbrella (Flood)", "setting": "sedge, umbrella", "result": 0}, {"measurement": "Plant response rating, Ducksalad (Flood)", "setting": "ducksalad", "result": 0}, {"measurement": "Plant response rating, Corn", "setting": "corn [6]; 500 g ai/ha, postemergence", "result": 40}, {"measurement": "Plant response rating, Corn", "setting": "corn [6]; Postemergence, 125 g ai/ha", "result": 0}, {"measurement": "Plant response rating, Barnyardgrass", "setting": "barnyardgrass [7]; 500 g ai/ha, postemergence", "result": 20}, {"measurement": "Plant response rating, Barnyardgrass", "setting": "barnyardgrass [7]; Postemergence, 125 g ai/ha", "result": 10}, {"measurement": "Plant response rating, Blackgrass", "setting": "blackgrass [8]; 500 g ai/ha, postemergence", "result": 30}, {"measurement": "Plant response rating, Blackgrass", "setting": "blackgrass [8]; Postemergence, 125 g ai/ha", "result": 10}, {"measurement": "Plant response rating, Foxtail, Green", "setting": "green foxtail [9]; 500 g ai/ha, postemergence", "result": 20}, {"measurement": "Plant response rating, Foxtail, Green", "setting": "green foxtail [9]; Postemergence, 125 g ai/ha", "result": 10}, {"measurement": "Corn plant response rating", "setting": "corn [10]; [24]", "result": 20}, {"measurement": "Plant response rating, Corn", "setting": "corn [10]; [25]", "result": 0}, {"measurement": "Plant response rating, Wheat", "setting": "wheat [11]", "result": 10}, {"measurement": "Plant response rating, Kochia", "setting": "kochia [12]; 500 g ai/ha, postemergence", "result": 100}, {"measurement": "Plant response rating, Kochia", "setting": "kochia [12]; Postemergence, 125 g ai/ha", "result": 90}, {"measurement": "Plant response rating, Oat, Wild", "setting": "oat, wild [13]; 500 g ai/ha, postemergence", "result": 0}, {"measurement": "Plant response rating, Oat, Wild", "setting": "oat, wild [13]; Postemergence, 125 g ai/ha", "result": 0}, {"measurement": "Soybean plant response rating", "setting": "soybean [14]; [24]", "result": 40}, {"measurement": "Plant response rating, Soybean", "setting": "soybean [14]; [25]", "result": 0}, {"measurement": "Ragweed plant response rating", "setting": "ragweed [15]; [24]", "result": 60}, {"measurement": "Plant response rating, Ragweed", "setting": "ragweed [15]; [25]", "result": 0}, {"measurement": "Wheat plant response rating", "setting": "wheat [16]; [24]", "result": 20}, {"measurement": "Plant response rating, Wheat", "setting": "wheat [16]; [25]", "result": 0}, {"measurement": "Oat, Wild plant response rating", "setting": "oat, wild [17]; [24]", "result": 40}, {"measurement": "Plant response rating, Oat, Wild", "setting": "oat, wild [17]; [25]", "result": 0}, {"measurement": "Foxtail, Green plant response rating", "setting": "green foxtail [18]; [24]", "result": 100}, {"measurement": "Plant response rating, Foxtail, Green", "setting": "green foxtail [18]; [25]", "result": 20}, {"measurement": "Barnyardgrass plant response rating", "setting": "barnyardgrass [19]; [24]", "result": 70}, {"measurement": "Plant response rating, Barnyardgrass", "setting": "barnyardgrass [19]; [25]", "result": 30}, {"measurement": "Kochia plant response rating", "setting": "kochia [20]; [24]", "result": 90}, {"measurement": "Plant response rating, Kochia", "setting": "kochia [20]; [25]", "result": 0}, {"measurement": "Plant response rating, Horseweed", "setting": "horseweed; 500 g ai/ha, postemergence", "result": 70}, {"measurement": "Plant response rating, Horseweed", "setting": "horseweed; Postemergence, 125 g ai/ha", "result": 60}, {"measurement": "Plant response rating, Rice (Flood)", "setting": "rice", "result": 0}, {"measurement": "Pigweed, Palmer plant response rating", "setting": "pigweed, palmer [21]; [24]", "result": 100}, {"measurement": "Plant response rating, Pigweed, Palmer", "setting": "pigweed, palmer [21]; [25]", "result": 100}, {"measurement": "Plant response rating, Pigweed, Palmer", "setting": "pigweed, palmer [22]; 500 g ai/ha, postemergence", "result": 90}, {"measurement": "Plant response rating, Pigweed, Palmer", "setting": "pigweed, palmer [22]; Postemergence, 125 g ai/ha", "result": 100}, {"measurement": "Plant response rating, Barnyardgrass (Flood)", "setting": "barnyardgrass [23]", "result": 0}]}]}
